From publication PMC13385394, “Cryo-EM Structure of the TRPC1/5 Heteromer Enables Design of Antidepressant and Anxiolytic Drug with Reduced Side Effects” (Nature Communications, 2026) come the findings set out here.

One assay deals with T1, TRPC3 homomer (Homo sapiens, UniProt Q13507).
T1 construct: expressed in transfected cells
T1 sequence (Q13507 1-921): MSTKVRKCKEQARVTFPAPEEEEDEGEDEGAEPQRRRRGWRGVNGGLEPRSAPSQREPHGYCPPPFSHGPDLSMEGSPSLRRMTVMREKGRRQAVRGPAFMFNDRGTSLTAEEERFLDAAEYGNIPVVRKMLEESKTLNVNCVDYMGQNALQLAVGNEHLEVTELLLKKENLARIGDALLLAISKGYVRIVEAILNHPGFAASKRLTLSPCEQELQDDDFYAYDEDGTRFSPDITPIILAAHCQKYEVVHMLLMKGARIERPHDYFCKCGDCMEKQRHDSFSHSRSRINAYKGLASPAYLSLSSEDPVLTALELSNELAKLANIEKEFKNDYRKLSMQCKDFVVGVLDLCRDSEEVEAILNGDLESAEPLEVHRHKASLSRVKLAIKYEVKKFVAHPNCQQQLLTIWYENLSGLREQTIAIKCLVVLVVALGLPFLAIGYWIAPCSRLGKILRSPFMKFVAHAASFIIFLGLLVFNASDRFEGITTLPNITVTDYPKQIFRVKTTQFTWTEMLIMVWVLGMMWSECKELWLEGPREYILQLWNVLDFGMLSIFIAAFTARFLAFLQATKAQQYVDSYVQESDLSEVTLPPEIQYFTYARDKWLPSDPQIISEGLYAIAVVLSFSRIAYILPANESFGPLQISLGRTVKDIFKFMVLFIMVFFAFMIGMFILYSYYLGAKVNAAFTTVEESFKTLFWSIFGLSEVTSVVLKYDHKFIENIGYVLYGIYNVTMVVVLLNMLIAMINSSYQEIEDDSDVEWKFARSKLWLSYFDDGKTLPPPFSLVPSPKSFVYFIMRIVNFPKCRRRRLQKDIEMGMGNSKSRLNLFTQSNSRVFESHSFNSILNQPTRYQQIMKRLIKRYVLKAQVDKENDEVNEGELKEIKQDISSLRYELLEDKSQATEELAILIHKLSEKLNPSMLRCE
Put plainly: Whole-cell patch-clamp, inhibition of TRPC3 homomer. The assay is classed as cell-based. The text has this:
Error bars represent the standard error of the mean (SEM, n = 6 independent
Error bars represent the standard error of the
110 mean (SEM, n = 5 independent cells).
Background: In patch-clamp work, channel activity is measured electrically.

The next assay concerns the target T2, TRPC7 homomer (Homo sapiens, UniProt Q9HCX4).
T2 construct: expressed in transfected cells
T2 sequence (Q9HCX4 1-862): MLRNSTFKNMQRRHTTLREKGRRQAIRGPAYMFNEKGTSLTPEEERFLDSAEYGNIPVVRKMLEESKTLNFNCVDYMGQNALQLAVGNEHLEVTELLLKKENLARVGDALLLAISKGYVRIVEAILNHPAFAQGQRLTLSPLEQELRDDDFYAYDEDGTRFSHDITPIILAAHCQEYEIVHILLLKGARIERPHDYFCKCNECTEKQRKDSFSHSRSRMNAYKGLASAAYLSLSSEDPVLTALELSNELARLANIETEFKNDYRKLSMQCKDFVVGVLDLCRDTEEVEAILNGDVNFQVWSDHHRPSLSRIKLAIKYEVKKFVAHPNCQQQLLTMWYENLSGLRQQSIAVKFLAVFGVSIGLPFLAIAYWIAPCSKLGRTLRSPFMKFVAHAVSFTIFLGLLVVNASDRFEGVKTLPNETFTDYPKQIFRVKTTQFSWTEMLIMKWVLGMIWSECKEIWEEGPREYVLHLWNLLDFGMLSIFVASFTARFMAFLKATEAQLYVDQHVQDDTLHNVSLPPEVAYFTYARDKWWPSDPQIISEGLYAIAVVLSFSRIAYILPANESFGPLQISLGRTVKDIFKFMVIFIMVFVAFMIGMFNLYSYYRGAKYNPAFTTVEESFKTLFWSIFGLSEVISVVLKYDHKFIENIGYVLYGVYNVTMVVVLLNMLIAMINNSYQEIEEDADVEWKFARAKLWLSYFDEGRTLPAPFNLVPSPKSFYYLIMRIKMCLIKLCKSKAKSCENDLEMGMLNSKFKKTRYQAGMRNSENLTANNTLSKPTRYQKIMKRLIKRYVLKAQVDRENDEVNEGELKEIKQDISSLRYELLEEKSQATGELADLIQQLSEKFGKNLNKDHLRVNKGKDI
Put plainly: Whole-cell patch-clamp, inhibition of TRPC7 homomer. The assay is classed as cell-based. From the text: Error bars represent the standard error of the mean (SEM, n = 5 independent cells).

What is called IC50 is the concentration at which inhibition is half-maximal. A higher IC50 goes with weaker potency. In the case of `CN(C)CCCCn1c(=O)c2c(nc(Oc3cccc(Cl)c3)n2Cc2ccc(Cl)cc2)n(C)c1=O` [H08], the IC50 on TRPC3 homomer and against TRPC7 homomer was greater than 10 µM each time. In addition, the “inhibition of TRPC3” value on TRPC3 homomer (10 μM) is recorded as “no more than 40%”. Besides, the “inhibition of TRPC7” value against TRPC7 homomer (10 μM) is reported as “no more than 40%”.
